Read-outs that look alike come from different tables or passages of the source.
Assays:
Test in all cases: microbe, parasite or virus in culture
Type in all cases: cell-based
[1] = tested on: SARS-CoV-2 Delta (B.1.617.2)
[2] = tested on: SARS-CoV-2 Beta (B.1.351)
[3] = tested on: SARS-CoV-2 Omicron (B.1.1.529)
[4] = Severe acute respiratory syndrome coronavirus 2, Vero C1008, 72 h

Molecule	IC50 [1] [µM]	IC50 [2] [µM]	IC50 [3] [µM]	IC50 [1, 4] [µM]	IC50 [2, 4] [µM]	IC50 [3, 4] [µM]
4-[5-[3-[5-(2-Bromophenoxy)pentyl]-2,6-dioxo-5-methyl-3,6-dihydropyrimidin-1(^2H)-yl]pentyloxy]benzoic acid [Compound 872]	> 50	> 50	7.92	–	–	–
O=C(O)c1ccc(OCCCCn2c(=O)ccn(Cc3cccc4ccccc34)c2=O)cc1 [Compound 601, 4-[4-[2,6-Dioxo-3-(naphthyl-1-methyl)-3,6-dihydropyrimidin-1(^2H)-yl]butoxy]benzoic acid]	–	–	–	32.7	32.7	27.1
O=c1ccn(Cc2c3ccccc3cc3ccccc23)c(=O)n1CCCCCCOc1ccc(Br)cc1 [Compound 611, 1-(Anthracen-9-ylmethyl)-3-[6-(4-bromophenoxy)hexyl]uracil]	–	–	–	13.3	> 50	> 50
O=C(O)c1ccc(OCCCCCn2c(=O)ccn(CCCCCOc3ccc(F)cc3)c2=O)cc1 [Compound 870, 4-[5-[3-[5-(4-Fluorophenoxy)pentyl]-2,6-dioxo-3,6-dihydropyrimidin-1(^2H)-yl]pentyloxy]benzoic acid]	–	–	–	14.6	34.1	24.4
O=C(O)c1ccc(OCCCCCn2c(=O)ccn(CCCCCOc3ccccc3Br)c2=O)cc1 [Compound 871, 4-[5-[3-[5-(2-Bromophenoxy)pentyl]-2,6-dioxo-3,6-dihydropyrimidin-1(^2H)-yl]pentyloxy]benzoic acid]	–	–	–	26.6	27.3	> 50
O=C(O)c1ccc(OCCCCn2c(=O)ccn(CCCOc3ccc(Br)cc3)c2=O)cc1 [Compound 873, 4-[4-[3-[3-(4-Bromophenoxy)propyl]-2,6-dioxo-3,6-dihydropyrimidin-1(^2H)-yl]butoxy]benzoic acid]	–	–	–	> 50	50	28.2
Cc1cc(C)cc(OCCCCCn2ccc(=O)n(CCCCCOc3ccc(C(=O)O)cc3)c2=O)c1 [Compound 874, 4-[5-[3-[5-(3,5-Dimethylphenoxy)pentyl]-2,6-dioxo-3,6-dihydropyrimidin-1(^2H)-yl]pentyloxy]benzoic acid]	–	–	–	30.2	29.1	> 50
O=C(O)c1ccc(Cn2c(=O)ccn(CCCCCOc3ccc(Br)cc3)c2=O)cc1 [Compound 875]	–	–	–	30.7	33.1	22.6
O=C(O)c1ccc(OCCCCCn2c(=O)ccn(Cc3c4ccccc4cc4ccccc34)c2=O)cc1 [Compound 876]	–	–	–	29.3	23.8	22.4
O=C(O)c1ccc(OCCCCn2c(=O)ccn(Cc3ccc4ccccc4c3)c2=O)cc1 [Compound 1005, 4-[4-[2,6-Dioxo-3-(naphthyl-2-methyl)-3,6-dihydropyrimidin-1(^2H)-yl]butoxy]benzoic acid]	–	–	–	27.8	15.5	> 50
O=C(O)c1ccc(OCCCCn2c(=O)ccn(Cc3ccc(Br)c4ccccc34)c2=O)cc1 [Compound 1006, 4-[4-[3-(4-Bromonaphthyl-1-methyl)-2,6-dioxo-3,6-dihydropyrimidin-1(2H)-yl]butoxy]benzoic acid]	–	–	–	27.4	> 50	> 50
O=C(O)c1ccc(OCCCn2c(=O)ccn(CCCCCCCCCCCCOc3ccc(Br)cc3)c2=O)cc1 [Compound 1007, 4-[3-[3-[12-(4-Bromophenoxy)dodecyl]-2,6-dioxo-3,6-dihydropyrimidin-1(^2H)-yl]propoxy]benzoic acid]	–	–	–	> 50	> 50	> 50

Source: article PMC9456261 (International Journal of Molecular Sciences, 2022)
